Results as given in US8637312B2, “Mammalian culture media with polyamine and iron” (Cellca GmbH, priority 2008, dated 2014).

Tests used:
[1] = system: rat hepatoma cells; conditions: 100 μM in culture medium; Itoh et al. 1994; cited from earlier work
[2] = system: CHO DG44 host cell line; assay: High cell density fed-batch culture of antibody producing CHO clone, cell growth; format: cell-based, Chinese hamster; conditions: for requirement for optimal cell growth: Example 6, FIG. 6, spermine with iron (III) citrate, iron (III) citrate supplemented at day 6 to 400 mg/l; for effect of spermine and iron together on cell growth: Example 1, FIG. 1, both at high concentration, feed media polyamine and iron free
From the text: (§1) For all experiments a CHO DG44 host cell line (Urlaub and Chasin, Proc. Natl. Acad. Sci. USA, 1980, 77: 4216) was used. This host cell line was transfected with a vector carrying the gene of an IgG antibody. Transfectants were amplified using MTX in culture medium. An antibody producing clone was isolated and this clone was then used for all experiments.
(§2) Stock culture cells were kept in a shake flask or in a spinner flask. The stock culture was split into fresh culture medium every two or three days. That means, a small amount of cell culture was used as inoculum and transferred into a new flask and supplemented with fresh culture medium. Cells were cultured at 37° C. in CO2 atmosphere in an incubator. In this way cells were cultured in several passages. One passage is defined as a culture duration of 2-4 days. At different time points inoculum cells were taken from the stock culture and experiments were performed in various scales, for examples in 6-well plates, shake flasks, T-flasks, spinner flasks and bioreactors.
A basal medium as follows (in the following also termed proprietary culture medium) was used for cultivation of cells in all steps, e.g. in the stock culture, in the culture expansion step and in the production step. The basal medium contains all necessary substances for cell growth, cell viability and cellular productivity. The basal medium contains glucose at 1.0-6.0 g/l, NaCl 2.8-6.2 g/l, KCl 273-945 mg/l, CaCl2 48-290 mg/l, MgCl2 42-330 mg/l, NaH2PO4 56-1130 mg/l, Arginine 56-930 mg/l, Asparagine 44-900 mg/l, Aspartic acid 26-445 mg/l, Cysteine 35-270 mg/l, Glutamic acid 44-900 mg/, Glutamine 44-900 mg/l, Glycine 18-180 mg/l, Histidine 42-670 mg/l, Isoleucine 54-877 mg/l, Leucine 59-1250 mg/l, Lysine 73-1120 mg/l, Methionine 9-454 mg/l, Phenylalanine 35-677 mg/l, Proline 17-828 mg/l, Serine 26-1339 mg/l, Threonine 24-989 mg/l, Tryptophane 9-441 mg/l, Tyrosine 55-565 mg/l, Valine 52-787 mg/l, NaHCO3 2,4 g/l. The basal medium further comprises fatty acids and nucleotides. In all batch and fed-batch experiments the same proprietary culture medium and proprietary feed medium were used, unless otherwise stated. The feed medium used in fed-batch experiments (in the following also termed “proprietary feed medium”) has all necessary substances for cell growth, cell viability and cellular productivity, in particular salts, trace elements, carbohydrates, amino acids, fatty acids, pH regulator, nucleotides. Even though here a rich feed medium is used containing above mentioned substances, feed media must not comprise all of these components. Feed media consisting of one or more of above mentioned substances are suitable also. Both basal medium and feed medium are serum free, protein free, peptone free and peptide free. However, supplementation of media with one or more of above mentioned additives is possible. Thus, both media are chemically defined, consisting of only single, fully defined chemicals.
Experiments were performed either in batch or in fed-batch modus. If an experiment was designed for fed-batch modus, it was started by inoculating the flask with stock culture cells in the production medium (culture medium). Culture flasks were inoculated with an inoculation cell density of 2 to 4×10^5 viable cells per millilitre. Cells were cultured for 1 to 4 days. The culture was supplemented thereafter with a feed medium for first time. Feeding was done batch wise every 1 to 3 days. Feeding the culture with feed medium was performed batch wise (bolus addition). Feeding of culture can also be done continuously, especially in bioreactors. In fed-batch experiments two different feed media were used. However, it is possible to use one or more than two different feed media. The culture was incubated as long as the cell viability was greater than 50%. Thus, culture duration was approximately 10 to 18 days. Every day samples were taken from cultures and analytical processes were done, such as cell count and metabolite measurements. […]

[3] = system: CHO DG44 host cell line; assay: Batch culture of antibody producing CHO clone, cell growth; format: cell-based, Chinese hamster; conditions: for effect of spermine and iron together on cell concentration: Example 5, FIG. 5, spermine with iron (III) nitrate nonahydrate, both at high concentration
From the text: as §1, §2
A basal medium as follows (in the following also termed proprietary culture medium) was used for cultivation of cells in all steps, e.g. in the stock culture, in the culture expansion step and in the production step. The basal medium contains all necessary substances for cell growth, cell viability and cellular productivity. The basal medium contains glucose at 1.0-6.0 g/l, NaCl 2.8-6.2 g/l, KCl 273-945 mg/l, CaCl2 48-290 mg/l, MgCl2 42-330 mg/l, NaH2PO4 56-1130 mg/l, Arginine 56-930 mg/l, Asparagine 44-900 mg/l, Aspartic acid 26-445 mg/l, Cysteine 35-270 mg/l, Glutamic acid 44-900 mg/, Glutamine 44-900 mg/l, Glycine 18-180 mg/l, Histidine 42-670 mg/l, Isoleucine 54-877 mg/l, Leucine 59-1250 mg/l, Lysine 73-1120 mg/l, Methionine 9-454 mg/l, Phenylalanine 35-677 mg/l, Proline 17-828 mg/l, Serine 26-1339 mg/l, Threonine 24-989 mg/l, Tryptophane 9-441 mg/l, Tyrosine 55-565 mg/l, Valine 52-787 mg/l, NaHCO3 2,4 g/l. The basal medium further comprises fatty acids and nucleotides. In all batch and fed-batch experiments the same proprietary culture medium and proprietary feed medium were used, unless otherwise stated. The feed medium used in fed-batch experiments (in the following also termed “proprietary feed medium”) has all necessary substances for cell growth, cell viability and cellular productivity, in particular salts, trace elements, carbohydrates, amino acids, fatty acids, pH regulator, nucleotides. Even though here a rich feed medium is used containing above mentioned substances, feed media must not comprise all of these components. Feed media consisting of one or more of above mentioned substances are suitable also. Both basal medium and feed medium are serum free, protein free, peptone free and peptide free. […]

[4] = oligopeptide-free medium; WO 2007/077217; cited from earlier work
[5] = system: BHK (baby hamster kidney) cells; conditions: adherent growing BHK cells, serum containing medium; Brunton et al. 1991; cited from earlier work
[6] = system: CHO (Chinese hamster ovary) cells; conditions: 10 μM ferric iron plus spermine 0 to 100 μM, serum containing medium; Gaboriau et al. 2004; cited from earlier work
[7] = Example 8, FIG. 8, in the presence of spermine

## [Fe+3] [ferric (Fe^3+) iron]
[1]
  mitochondrial DNA damage: damaged

## [Fe+2] [ferrous (Fe^2+)]
[1]
  mitochondrial DNA damage: damaged

## O=C([O-])CC(O)(CC(=O)[O-])C(=O)[O-].[Fe+3] [iron (III) citrate]
[2]
  requirement for optimal cell growth: required

## O.O.O.O.O.O.O.O.O.O=[N+]([O-])[O-].O=[N+]([O-])[O-].O=[N+]([O-])[O-].[Fe+3] [iron (III) nitrate nonahydrate]
[3]
  effect of spermine and iron together on cell concentration: synergistic effects

## O=P([O-])([O-])[O-].[Fe+3] [iron (III) phosphate]
[2]; [7]
  effect of high iron concentration on cell growth: promotes cell growth
  toxicity of high iron concentration to the cells: not toxic

## NCCCCN [putrescine]
[4]
  efficiency among amines in promoting cell specific productivity: most efficient amine

## NCCCCNCCCN [spermidine]
[3]; Example 2, FIG. 2, 100 mg/l iron (III) pyrophosphate hydrate, with versus without spermidine
  cell concentration reached: higher concentration
[3]; Example 2, FIG. 2, tested high concentrations, 100 mg/l iron (III) pyrophosphate hydrate
  toxicity of spermidine: not visible

## NCCCNCCCCNCCCN [spermine]
[2]
  effect of spermine and iron together on cell growth: synergistic effect
  requirement for optimal cell growth: required
[2]; Example 3, FIG. 3, 100 mg/l iron (III) pyrophosphate hydrate in medium, 800 mg/l in feed
  cell growth with increasing spermine concentration: grow better
[2]; Example 7, FIG. 7, iron (III) citrate as iron source, feed 3200 mg/l iron (III) citrate
  effect of spermine on cell growth: positive effect
[2]; Example 8, FIG. 8, iron (III) phosphate as iron source, feed 800 mg/l iron (III) phosphate
  effect of spermine on cell growth: positive effect
[3]
  effect of spermine and iron together on cell concentration: synergistic effects
[5]
  toxicity to cells: toxic
[6]
  number of viable cells: decreases the number of viable cells in a dose-dependent manner
[4]
  cellular productivity on increasing concentration above 2 mg/l: does not significantly increase

## iron
[2]; Example 1, FIG. 1
  need of iron for cell growth: essential
[2]
  effect of spermine and iron together on cell growth: synergistic effect

## iron dextran
[2]; Example 9, FIG. 9, 40 mg/l spermine, iron dextran fed at day 6 to 250 mg/l
  effect of high iron concentration on cell growth: promotes cell growth
